pIC50: −log10 of the molar value. Starred links: 1 amine or outer side, 2 acyl side, 3 side chain; linkers in the order of their positions; H or OH if unused. Non-standard residues stand in square brackets, D forms with d. Residues, ends and D or L forms follow the SMILES beside them. *: point of attachment. Exatecan = CC[C@@]1(O)C(=O)OCc2c1cc1n(c2=O)Cc2c-1nc1cc(F)c(C)c3c1c2[C@@H](N*)CC3; Dolaproine = CO[C@@H]([C@@H]1CCCN1)[C@@H](C)C(=O)O; Hexanoyl(6-maleimido) = O=C1C=CC(=O)N1CCCCCC(=O)*; Dil = CC[C@H](C)[C@H](NC)[C@@H](CC(=O)O)OC; NHCH2OCH2CO = O=C(COCN[*:1])[*:2]; X1 = C[C@@H](N*)[C@@H](O)c1ccccc1; NMeV = CN[C@H](C(=O)O)C(C)C
Tested on: NCI-N87 cells
Assay: Cytotoxicity assay (CellTiter-Glo)
Format: cell-based
Settings: 6 days, max 50 nM
Description: When the confluence of cultured NCI-N87 cells reached 70-90%, the cells were digested with trypsin. The trypsin was removed by centrifugation. […] The plate was incubated in a 5% CO2 incubator at 37° C. for 6 days. After the incubation was completed, the cell viability was detected with CellTiter-Glo reagent (Promega, G7573), and the specific cell viability value was measured by a multifunctional microplate reader (PerkinElmer, EnVision).

Compound	Max Cytotoxicity %	pIC50 (Homo sapiens, 144 h)	pIC50
C=C1C[C@@H]2CC[C@@]34C[C@H]5O[C@H]6[C@@H](O3)[C@H]3O[C@H](CC[C@@H]3O[C@H]6[C@H]5O4)CC(=O)C[C@@H]3[C@@H](OC)[C@@H](C[C@H](O)CN)O[C@H]3C[C@H]3O[C@@H](CC[C@@H]1O2)C[C@@H](C)C3=C [Eribulin, eribulin]	93.99%	9.66	–
CC[C@@]1(O)C(=O)OCc2c1cc1n(c2=O)Cc2c-1nc1cc(F)c(C)c3c1c2[C@@H](NC(=O)COCNC(=O)CNC(=O)[C@H](Cc1ccccc1)NC(=O)CNC(=O)CNC(=O)CCCCCN1C(=O)C=CC1=O)CC3 [DS8201 scaffold, Deruxtecan] ({Hexanoyl(6-maleimido)}-GGFG[NHCH2OCH2CO]-Exatecan)	9.38%	–	–
CC[C@H](C)[C@@H]([C@@H](CC(=O)N1CCC[C@H]1[C@H](OC)[C@@H](C)C(=O)N[C@H](C)[C@@H](O)c1ccccc1)OC)N(C)C(=O)[C@@H](NC(=O)[C@@H](NC)C(C)C)C(C)C [MMAE, monomethyl auristatin E] (H-[NMeV]V[Dil][Dolaproine]-X1)	93.50%	–	9.89

Reference: patent US20230390411A1, “CONJUGATE AND USE THEREOF” (NANJING CHEMPION BIOTECHNOLOGY CO., LTD., priority 2021, published 2023)
